Patent publication US4526889A, “Epimeric azahomoerythromycin A derivative, intermediates and method of use” (Pfizer Inc., priority 1984, dated 1985)
≈ marks a conversion by molar mass, not a printed value. Where two headings read alike, the source gives them in different places.

Tests used:
Experiment in all cases: MIC in brain heart infusion (BHI) broth
[1] = tested on: H. influ. 038; assay type: cell-based, Hemophilus influenzae; conditions: Haemophilus influenzae
From the text: (§1) Generally twelve 2 fold dilutions of the test compound are employed, with initial concentration of the test drug being in the range of 50 to 200 mcg./ml. The susceptibility (MIC) of the test organism is accepted as the lowest concentration of compound capable of producing complete inhibition of growth as judged by the naked eye. A comparison of the activity of 4"-epi-9-deoxo-9a-methyl-9a-aza-9a-homoerythromycin A (IV) with that of an erythromycin A control is shown in replicate in the Table I.

[2] = tested on: H. influ. 051; assay type: cell-based, Hemophilus influenzae; conditions: Haemophilus influenzae
From the text: as §1

[3] = tested on: H. influ. 042; assay type: cell-based, Hemophilus influenzae; conditions: Haemophilus influenzae
From the text: as §1

[4] = tested on: H. influ. 078; assay type: cell-based, Hemophilus influenzae; conditions: Haemophilus influenzae
From the text: as §1

[5] = tested on: H. influ. 081; assay type: cell-based, Hemophilus influenzae; conditions: Haemophilus influenzae
From the text: as §1

[6] = tested on: H. influ. 036; assay type: cell-based, Hemophilus influenzae; conditions: Haemophilus influenzae
From the text: as §1

[7] = tested on: H. influ. 012; assay type: cell-based, Hemophilus influenzae; conditions: Haemophilus influenzae
From the text: as §1

[8] = tested on: H. influ. 073; assay type: cell-based, Hemophilus influenzae; conditions: Haemophilus influenzae
From the text: as §1

[9] = tested on: E. Coli 470; assay type: cell-based; conditions: Escherichia coli
From the text: as §1

[10] = tested on: Staph. aur. 005; assay type: cell-based; conditions: BHI broth, read-out: MIC
From the text: as §1

[11] = tested on: Staph. aur. 400; assay type: cell-based
From the text: as §1

[12] = tested on: E. Coli 129; assay type: cell-based; conditions: Escherichia coli, BHI broth, read-out: MIC
From the text: as §1

[13] = tested on: Staph. aur. 052; assay type: cell-based; conditions: BHI broth, read-out: MIC
From the text: as §1

[14] = tested on: Staph. epi 111; assay type: cell-based
From the text: as §1

[15] = tested on: Ent. cloac. 009; assay type: cell-based
From the text: as §1

[16] = tested on: Strep. pneumo. 012; assay type: cell-based
From the text: as §1

[17] = tested on: Kleb. oxy. 024; assay type: cell-based
From the text: as §1

[18] = tested on: Prov. strua. 013; assay type: cell-based
From the text: as §1

[19] = tested on: Ent. aerog. 040; assay type: cell-based
From the text: as §1

[20] = tested on: Serr. mar. 017; assay type: cell-based
From the text: as §1

[21] = tested on: Kleb. pn. 031; assay type: cell-based
From the text: as §1

[22] = tested on: Strep. pyog. 203; assay type: cell-based
From the text: as §1

[23] = tested on: E. Coli 266; assay type: cell-based; conditions: Escherichia coli, BHI broth, read-out: MIC
From the text: as §1

[24] = tested on: Strep. faec. 006; assay type: cell-based; conditions: BHI broth, read-out: MIC
From the text: as §1

[25] = tested on: Neiss. sic. 000; assay type: cell-based
From the text: as §1

[26] = tested on: E. Coli 125; assay type: cell-based; conditions: Escherichia coli, BHI broth, read-out: MIC
From the text: as §1

[27] = tested on: Kleb. pn. 009; assay type: cell-based
From the text: as §1

[28] = tested on: Past. mult. 001; assay type: cell-based
From the text: as §1

## CC[C@H]1OC(=O)[C@H](C)[C@@H](O[C@H]2C[C@@](C)(OC)[C@@H](O)[C@H](C)O2)[C@H](C)[C@@H](O[C@@H]2O[C@H](C)C[C@H](N(C)C)[C@H]2O)[C@](C)(O)C[C@@H](C)C(=O)[C@H](C)[C@@H](O)[C@]1(C)O [Erythromycin A]
[1]; 24 h
  MIC: 6.25 µg/mL (≈ 8.52 µM)
[1]; 48 h
  MIC: 3.12 µg/mL (≈ 4.25 µM)
[2]; 24 h
  MIC: 3.12 µg/mL (≈ 4.25 µM)
[2]; 48 h
  MIC: 3.12 µg/mL (≈ 4.25 µM)
[3]; 24 h, Day 1
  MIC: 1.56 µg/mL (≈ 2.13 µM)
[3]; 48 h, Day 2
  MIC: 1.56 µg/mL (≈ 2.13 µM)
[4]; 24 h, Day 1
  MIC: 1.56 µg/mL (≈ 2.13 µM)
[4]; 48 h, Day 2
  MIC: 1.56 µg/mL (≈ 2.13 µM)
[5]; 24 h
  MIC: 3.12 µg/mL (≈ 4.25 µM)
[5]; 48 h
  MIC: 3.12 µg/mL (≈ 4.25 µM)
[6]; 24 h, Day 1
  MIC: 6.25 µg/mL (≈ 8.52 µM)
[6]; 48 h, Day 2
  MIC: 3.12 µg/mL (≈ 4.25 µM)
[7]; 24 h, Day 1
  MIC: 3.12 µg/mL (≈ 4.25 µM)
[7]; 48 h, Day 2
  MIC: 1.56 µg/mL (≈ 2.13 µM)
[8]; 24 h
  MIC: 3.12 µg/mL (≈ 4.25 µM)
[8]; 48 h
  MIC: 3.12 µg/mL (≈ 4.25 µM)
[9]; 24 h
  MIC: 3.12 µg/mL (≈ 4.25 µM)
[9]; 48 h
  MIC: 3.12 µg/mL (≈ 4.25 µM)
[10]; 24 h, Day 1
  MIC: 0.05 µg/mL (≈ 0.0681 µM)
[10]; 48 h, Day 2
  MIC: 0.05 µg/mL (≈ 0.0681 µM)
[11]; 24 h
  MIC: 3.12 µg/mL (≈ 4.25 µM)
[11]; 48 h
  MIC: 6.25 µg/mL (≈ 8.52 µM)
[12]; 24 h, Day 1
  MIC: > 50 µg/mL
[12]; 48 h, Day 2
  MIC: > 50 µg/mL
[13]; 24 h, Day 1
  MIC: 0.1 µg/mL (≈ 0.136 µM)
[13]; 48 h, Day 2
  MIC: 0.1 µg/mL (≈ 0.136 µM)
[14]; 24 h, Day 1
  MIC: 0.05 µg/mL (≈ 0.0681 µM)
[14]; 48 h, Day 2
  MIC: 0.05 µg/mL (≈ 0.0681 µM)
[15]; 24 h, Day 1
  MIC: > 50 µg/mL
[15]; 48 h, Day 2
  MIC: > 50 µg/mL
[16]; 24 h, Day 1
  MIC: 0.025 µg/mL (≈ 0.0341 µM)
[16]; 48 h, Day 2
  MIC: 0.025 µg/mL (≈ 0.0341 µM)
[17]; 24 h, Day 1
  MIC: > 50 µg/mL
[17]; 48 h, Day 2
  MIC: > 50 µg/mL
[18]; 24 h, Day 1
  MIC: > 50 µg/mL
[18]; 48 h, Day 2
  MIC: > 50 µg/mL
[19]; 24 h, Day 1
  MIC: > 50 µg/mL
[19]; 48 h, Day 2
  MIC: > 50 µg/mL
[20]; 24 h, Day 1
  MIC: > 50 µg/mL
[20]; 48 h, Day 2
  MIC: > 50 µg/mL
[21]; 24 h, Day 1
  MIC: > 50 µg/mL
[21]; 48 h, Day 2
  MIC: > 50 µg/mL
[22]; 24 h, Day 1
  MIC: 0.025 µg/mL (≈ 0.0341 µM)
[22]; 48 h, Day 2
  MIC: 0.025 µg/mL (≈ 0.0341 µM)
[23]; 24 h, Day 1
  MIC: > 50 µg/mL
[23]; 48 h, Day 2
  MIC: > 50 µg/mL
[24]; 24 h, Day 1
  MIC: 0.78 µg/mL (≈ 1.06 µM)
[24]; 48 h, Day 2
  MIC: 0.78 µg/mL (≈ 1.06 µM)
[25]; 24 h
  MIC: 1.56 µg/mL (≈ 2.13 µM)
[25]; 48 h
  MIC: 3.12 µg/mL (≈ 4.25 µM)
[26]; 24 h, Day 1
  MIC: > 50 µg/mL
[26]; 48 h, Day 2
  MIC: > 50 µg/mL
[27]; 24 h, Day 1
  MIC: > 50 µg/mL
[27]; 48 h, Day 2
  MIC: > 50 µg/mL
[28]; 24 h
  MIC: 1.56 µg/mL (≈ 2.13 µM)
[28]; 48 h
  MIC: 1.56 µg/mL (≈ 2.13 µM)
